Reference: a melting point compilation (Tetko et al.; mined from patent text by program, amines drawn as free bases though some values may be those of a salt)

| melting point [°C] | SMILES |
| --- | --- |
| 82 to 84 | COC(=O)c1ccccc1Sc1ccccc1OC |
| 117 to 119 | CC1(C)Cc2cc(OCC(N)=O)c3c(c2C(c2ccccc2)=N1)CC(C)(C)O3 |
| 152 | CC12CC(CCCCCO)C3c4ccc(O)cc4CCC3C1CCC2O (stereo unspecified) |
| 100 to 102 | CN1C(=O)N2CCSC2(c2ccccc2)C1=O (stereo unspecified) |
| 128 to 130 | COCCOc1ccc(CCCOc2cc(CCC(=O)O)n(C)n2)c(OCc2ccc(Cl)cc2Cl)c1 |
| 101 | COc1ccc(C(O)C(=S)N(C)C)cc1 (stereo unspecified) |
| 114 to 117 | CCCOc1ccccc1-c1ccoc1C(=O)NNC(=O)c1ccc(O)c(C#N)c1 |
| 194 to 195 | CCOCc1nc2c(N)nc3cc(-c4ccccc4)ccc3c2n1CC1CCN(C(=O)OC(C)(C)C)CC1 |
| 169 to 170 | CN(C)S(=O)(=O)c1cc([N+](=O)[O-])c(N)c([N+](=O)[O-])c1 |
| 78 to 80 | CCCCCCCCCCCCCCNC(=S)NC(=O)c1ccc(C#N)cc1 |
| 246 | CC(C)n1cc(-c2nc(C(N)=O)c(N)nc2-c2ccc(Cl)cc2)ccc1=O |
| 120 to 121 | O=c1oc2ccccc2c(O)c1SCCOc1ccccc1 |
| 129 to 131 | CCCN(Cc1ccc(-c2ccccc2-c2nnnn2C(c2ccccc2)(c2ccccc2)c2ccccc2)cc1)c1ncccc1C(=O)OCC |
| 175 to 179 | CC(O)CNc1nc(NCc2ccccc2N)c2ncn(C(C)C)c2n1 (racemic) |
| 151 to 152 | CC1Cc2cc(N)ccc2C1=O (stereo unspecified) |
| 216 to 217 | COC(=O)c1ccc(-c2nnc(-c3ccc(C(F)(F)F)cc3)o2)cc1 |
| 94 to 97 | CC(SC(=O)c1ccccc1)C(=O)NCCC(=O)O (stereo unspecified) |
| 309 to 317 | CCc1cc(O)c2c(ccc3nc[nH]c32)n1 |
| 142 to 144 | CC(=O)OCc1nn(-c2ccc(F)cc2)c2c1CCCC2Cc1cccc2ccccc12 (stereo unspecified) |
| 121 to 122 | COCCCNS(=O)(=O)NC(=O)/C(C)=C/c1ccc(OCCOC)cc1Oc1ncc(C(F)(F)F)cc1Cl |
| 218 to 220 | Cc1nc(-c2ccc(C(=O)O)s2)no1 |
| 186 to 187 | Cc1ccc(NC(=O)c2ccc(C(=O)Nc3ccccc3NC(=O)OC(C)(C)C)nc2)cc1Nc1nccc(-c2cccnc2)n1 |
| > 350 | O=c1c2c[nH]c3ccc(F)cc3c-2nn1-c1ncccn1 |

| melting point [°C] | SMILES |
| --- | --- |
| 167 to 170 | COC(=O)c1c(C(=O)OC)c(C(C)C)n(CCC2CC(O)CC(=O)O2)c1-c1ccc(F)cc1 (stereo unspecified) |
| 134 to 136 | COC(=O)C(C)(C)OCC#Cc1cc(C(F)(F)F)ccc1NS(=O)(=O)c1ccc2c(c1)CCN2C(C)=O |
| 180 to 183 | CCOC(=O)c1sc(-n2ccc(OCC3CC3)cc2=O)nc1C |
| 176 to 182 | CN1CN(C)c2nc3n(Cc4ccccc4)c(=O)cc(O)n3c2C1=O |
| 70 to 91 | CC(C(=O)N1CCCC1C(=O)O)N(CC(=O)C(Cc1ccccc1)NC(=O)c1ccccc1)C(=O)OCc1ccccc1 (stereo unspecified) |
| 53 to 54 | CCCCCCCCCCCCc1cc(C=O)on1 |
| 239 to 240 | CNCc1cccc(C2CCN(c3cc4c(cc3F)c(=O)c(C(=O)O)cn4C3CC3)C2)c1 (stereo unspecified) |
| 283 to 285 | O=C1CC(c2cccc(OCc3ccccc3)c2)=Nc2ccc(N3CCOCC3)cc21 |
| 95 to 98 | CC(C)(c1ccc2ncccc2c1)n1nnc2ccc(-c3cnn(CCO)c3)nc21 |
| 161 to 162 | Nc1cccc2c1C(=O)N(c1ccc(OC(F)(F)F)cc1)C2=O |
| 77 to 79 | O=C(O)C(Br)CCCCCc1ccc(Cl)cc1 (stereo unspecified) |
| 230 to 233 | CCNC(=O)Nc1ccc(-c2sc3c(c2CN(C)CCOCCOCC)c(=O)n(-c2ccccc2)c(=O)n3Cc2c(F)cccc2F)cc1 |
| 106 to 154 | COc1cncc(OC)c1CCCOc1cccnc1Oc1cccc(Br)c1 |
| 156 to 160 | COC(=O)C1=C(C)NC(C)=C(C(=O)OCCc2cc(C)[nH]c2C)C1c1cccc([N+](=O)[O-])c1 (stereo unspecified) |
| 209 to 211 | CC(O)=C(C#N)C(=O)Nc1ccc(Cl)cc1 |
| 103 to 105 | CCNC(=O)n1nc(Oc2ccc(C#N)cc2C(F)(F)F)cc1C |
| 90 to 94 | CC(C)N(NC(=O)OC(C)(C)C)C(=O)NCC(F)(F)F |
| 175 to 180 | O=C(Nc1ccc(N2CCOCC2)c(C(F)(F)F)c1)c1ccc(F)c(OCc2cncc3ccccc23)c1 |
| 139 to 141 | O=[N+]([O-])c1cn(-c2cccnc2)nc1F |
| 175 to 179 | CN(C)CC1=Cc2ccc(C(=O)Nc3ccc(Br)cc3)cc2CC1 |
| 60 | C=C(C)C#Cc1cccc2c1C(=O)OC(C)(C)O2 |
| 183 to 184 | COC(=O)c1[nH]c2ccccc2c1Oc1ccccc1N |
| 234 | C=CCc1c(-c2cc(=O)c3c(O)cc(OCc4ccccc4)cc3o2)ccc(OC)c1O |

| melting point [°C] | SMILES |
| --- | --- |
| 203 to 204 | CCCCc1nc2ccn(Cc3ccccc3C(=O)OCC)c(=O)c2n1Cc1ccc(-c2ccccc2-c2nnn[nH]2)cc1 |
| 276 to 279 | CN1CCN(c2ccc(Nc3ncc4c(n3)S/C(=C/c3ccc([N+](=O)[O-])cc3)C(=O)N4)cc2)CC1 |
| 112 to 114 | CCOC(=O)c1cnn(-c2ccccn2)c1C#N |
| 168 to 170 | COc1nc(SCC(N)c2ncco2)cnc1NS(=O)(=O)c1cccc(Cl)c1Cl (stereo unspecified) |
| 165 to 166 | CCCCOP(=O)(OCCCC)C(Sc1cc(F)ccc1O)=P(OCCCC)(OCCCC)OCCCC |
| 75 to 85 | Nc1cccc(-c2ccc(CCN(CC3CCCCC3)CC3CCCCC3)cc2)n1 |
| 158 to 160 | Oc1cc(F)cc(C2(O)CCOCC2)c1 |
| 173 to 175 | Nc1ncc2ncn(CCO)c2n1 |
| 131 to 133 | Cc1noc(NS(=O)(=O)c2c(C)sc3ccccc23)c1Br |
| > 220 | CON(C)C(=O)c1cc(-n2c(=O)cc(C(F)(F)F)[nH]c2=O)c(F)cc1Cl |
| 103 | CC1(C(Cl)(Cl)Cl)C=CC(=O)C=C1 |
| 122 to 124 | CC(C)C(=O)Nc1cccn1C |
| 198 to 199 | N#Cc1ccc(-c2cc(-c3cc(Br)ccc3Cl)no2)cc1 |
| 144 to 145 | C[C@@H](SCC(N)=O)[C@](O)(Cn1cncn1)c1ccc(F)cc1F |
| 162 to 165 | CCOC(=O)/C=C/c1cc(-n2ncnn2)cc(C)c1N |
| 139 | CCOC(=O)Nc1ccc(OCc2ccc(Cl)nc2)cc1F |
| 183 to 185 | O=C(NC(CCCl)c1ccccc1Br)c1c(F)cccc1F (stereo unspecified) |
| 97 to 98 | COC(=O)c1cc2ccc(OC)cc2o1 |
| 78 to 79 | C(=Cc1nc2ccccc2o1)c1ccccc1 |
| 191 | CCCOC(=O)c1c(C)nsc1NC(=O)NC |
| 29 to 31 | CCNc1nc(NCCN2CCCC2)nc(Nc2ccc(OC)cc2)n1 |

| SMILES | melting point [°C] |
| --- | --- |
| CN1C(=O)C(C)(C)N=C(c2ccccc2F)c2cc(N)ccc21 | 190 to 191 |
| CN1CCN(c2ccc3nc(N)c(C#N)c(Cl)c3c2)CC1 | 189 |
| COc1ccc(N2CCN(Cc3ccc([N+](=O)[O-])cc3)CC2)cc1 | 130 to 132 |
| CN(C)C=Cc1nc2ccc(F)cc2c(=O)n1-c1cccnc1Cl | 197 to 200 |
